The target in one assay is T1, GRK7 (Homo sapiens, UniProt Q8WTQ7).
T1 sequence (Q8WTQ7 1-553): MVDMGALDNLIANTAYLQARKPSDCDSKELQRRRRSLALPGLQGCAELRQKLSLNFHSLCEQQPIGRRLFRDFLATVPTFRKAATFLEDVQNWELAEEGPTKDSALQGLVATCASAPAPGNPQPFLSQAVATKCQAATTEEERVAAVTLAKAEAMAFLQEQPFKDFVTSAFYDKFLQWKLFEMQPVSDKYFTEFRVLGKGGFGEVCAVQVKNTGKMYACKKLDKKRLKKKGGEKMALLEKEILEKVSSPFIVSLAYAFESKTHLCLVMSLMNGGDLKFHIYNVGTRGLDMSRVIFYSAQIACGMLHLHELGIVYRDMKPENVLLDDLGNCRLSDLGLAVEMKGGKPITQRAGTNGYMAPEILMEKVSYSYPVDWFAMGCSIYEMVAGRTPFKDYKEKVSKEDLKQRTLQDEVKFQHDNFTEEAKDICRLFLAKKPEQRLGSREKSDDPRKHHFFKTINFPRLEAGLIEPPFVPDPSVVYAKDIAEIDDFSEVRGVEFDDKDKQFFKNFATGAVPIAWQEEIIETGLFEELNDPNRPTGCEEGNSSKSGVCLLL
As to the kind of experiment: biochemical. The note with it: read-out: % enzyme activity, 1 μM; Run 1, Run 2.

The target of the next assay is ROCK2 (Homo sapiens, UniProt O75116). The note with it: 1 μM; Run 1, Run 2.
Sequence of ROCK2 (O75116 whole entry): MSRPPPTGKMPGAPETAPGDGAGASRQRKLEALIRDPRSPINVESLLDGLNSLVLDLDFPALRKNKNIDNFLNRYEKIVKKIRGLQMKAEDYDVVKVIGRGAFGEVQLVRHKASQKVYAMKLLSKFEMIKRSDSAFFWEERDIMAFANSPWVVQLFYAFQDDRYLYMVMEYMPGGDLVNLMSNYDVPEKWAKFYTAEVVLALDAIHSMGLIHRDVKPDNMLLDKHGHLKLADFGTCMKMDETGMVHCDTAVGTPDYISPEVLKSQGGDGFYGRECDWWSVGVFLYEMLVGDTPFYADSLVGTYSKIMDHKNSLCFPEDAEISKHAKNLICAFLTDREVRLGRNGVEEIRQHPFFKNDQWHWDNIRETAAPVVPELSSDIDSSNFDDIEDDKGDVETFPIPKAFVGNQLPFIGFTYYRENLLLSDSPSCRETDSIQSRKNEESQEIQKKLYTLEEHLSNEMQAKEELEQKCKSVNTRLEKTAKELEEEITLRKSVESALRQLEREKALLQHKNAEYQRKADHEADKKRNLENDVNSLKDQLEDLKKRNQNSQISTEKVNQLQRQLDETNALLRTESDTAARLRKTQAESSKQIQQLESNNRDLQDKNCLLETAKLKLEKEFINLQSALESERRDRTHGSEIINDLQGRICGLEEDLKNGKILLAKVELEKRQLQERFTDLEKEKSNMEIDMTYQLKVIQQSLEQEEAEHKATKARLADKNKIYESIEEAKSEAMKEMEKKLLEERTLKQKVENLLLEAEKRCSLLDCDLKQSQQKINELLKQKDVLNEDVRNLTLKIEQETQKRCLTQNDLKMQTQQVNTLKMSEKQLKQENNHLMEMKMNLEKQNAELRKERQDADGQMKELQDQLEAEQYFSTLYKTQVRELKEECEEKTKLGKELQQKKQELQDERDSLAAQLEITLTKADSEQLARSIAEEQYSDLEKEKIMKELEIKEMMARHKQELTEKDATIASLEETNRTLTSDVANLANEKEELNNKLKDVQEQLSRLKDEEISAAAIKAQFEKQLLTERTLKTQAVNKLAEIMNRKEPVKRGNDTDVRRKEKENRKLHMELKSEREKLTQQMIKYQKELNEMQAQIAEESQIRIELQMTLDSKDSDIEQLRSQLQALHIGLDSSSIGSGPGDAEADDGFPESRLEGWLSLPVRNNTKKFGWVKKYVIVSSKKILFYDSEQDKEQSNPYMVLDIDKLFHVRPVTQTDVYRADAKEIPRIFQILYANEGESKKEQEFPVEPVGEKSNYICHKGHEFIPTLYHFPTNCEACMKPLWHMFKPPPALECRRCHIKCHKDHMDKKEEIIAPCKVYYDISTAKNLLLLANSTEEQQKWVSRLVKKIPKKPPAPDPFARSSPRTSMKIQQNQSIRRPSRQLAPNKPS
The next assay deals with CDK5/P25 (Homo sapiens, UniProt Q00535). In words: biochemical. The note with it: read-out: % enzyme activity, 1 μM; Run 1, Run 2.
A further assay has as its target WEE1 (Homo sapiens, UniProt P30291). In words: biochemical. The note with it: read-out: % enzyme activity, 1 μM; Run 1, Run 2.
The target in another assay is COT1/MAP3K8 (Homo sapiens, UniProt P41279). In words: biochemical. The note with it: read-out: % enzyme activity, 1 μM; Run 1, Run 2.
Sequence of COT1/MAP3K8 (P41279 whole entry): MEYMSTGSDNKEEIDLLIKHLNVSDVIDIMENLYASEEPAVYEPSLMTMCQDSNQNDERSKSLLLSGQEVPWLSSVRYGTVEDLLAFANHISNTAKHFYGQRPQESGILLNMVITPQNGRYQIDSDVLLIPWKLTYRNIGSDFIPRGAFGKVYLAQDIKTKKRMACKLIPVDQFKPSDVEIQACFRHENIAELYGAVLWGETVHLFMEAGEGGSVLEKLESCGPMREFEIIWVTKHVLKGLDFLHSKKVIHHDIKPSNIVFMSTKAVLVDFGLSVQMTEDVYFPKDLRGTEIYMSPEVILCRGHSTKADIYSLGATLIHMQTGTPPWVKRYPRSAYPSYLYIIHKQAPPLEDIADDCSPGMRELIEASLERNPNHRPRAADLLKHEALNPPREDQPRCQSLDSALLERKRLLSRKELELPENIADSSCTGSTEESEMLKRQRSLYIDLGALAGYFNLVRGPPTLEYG
The target of a further assay is PASK (Homo sapiens, UniProt Q96RG2). The note with it: 1 μM; Run 1, Run 2.
Sequence of PASK (Q96RG2 whole entry): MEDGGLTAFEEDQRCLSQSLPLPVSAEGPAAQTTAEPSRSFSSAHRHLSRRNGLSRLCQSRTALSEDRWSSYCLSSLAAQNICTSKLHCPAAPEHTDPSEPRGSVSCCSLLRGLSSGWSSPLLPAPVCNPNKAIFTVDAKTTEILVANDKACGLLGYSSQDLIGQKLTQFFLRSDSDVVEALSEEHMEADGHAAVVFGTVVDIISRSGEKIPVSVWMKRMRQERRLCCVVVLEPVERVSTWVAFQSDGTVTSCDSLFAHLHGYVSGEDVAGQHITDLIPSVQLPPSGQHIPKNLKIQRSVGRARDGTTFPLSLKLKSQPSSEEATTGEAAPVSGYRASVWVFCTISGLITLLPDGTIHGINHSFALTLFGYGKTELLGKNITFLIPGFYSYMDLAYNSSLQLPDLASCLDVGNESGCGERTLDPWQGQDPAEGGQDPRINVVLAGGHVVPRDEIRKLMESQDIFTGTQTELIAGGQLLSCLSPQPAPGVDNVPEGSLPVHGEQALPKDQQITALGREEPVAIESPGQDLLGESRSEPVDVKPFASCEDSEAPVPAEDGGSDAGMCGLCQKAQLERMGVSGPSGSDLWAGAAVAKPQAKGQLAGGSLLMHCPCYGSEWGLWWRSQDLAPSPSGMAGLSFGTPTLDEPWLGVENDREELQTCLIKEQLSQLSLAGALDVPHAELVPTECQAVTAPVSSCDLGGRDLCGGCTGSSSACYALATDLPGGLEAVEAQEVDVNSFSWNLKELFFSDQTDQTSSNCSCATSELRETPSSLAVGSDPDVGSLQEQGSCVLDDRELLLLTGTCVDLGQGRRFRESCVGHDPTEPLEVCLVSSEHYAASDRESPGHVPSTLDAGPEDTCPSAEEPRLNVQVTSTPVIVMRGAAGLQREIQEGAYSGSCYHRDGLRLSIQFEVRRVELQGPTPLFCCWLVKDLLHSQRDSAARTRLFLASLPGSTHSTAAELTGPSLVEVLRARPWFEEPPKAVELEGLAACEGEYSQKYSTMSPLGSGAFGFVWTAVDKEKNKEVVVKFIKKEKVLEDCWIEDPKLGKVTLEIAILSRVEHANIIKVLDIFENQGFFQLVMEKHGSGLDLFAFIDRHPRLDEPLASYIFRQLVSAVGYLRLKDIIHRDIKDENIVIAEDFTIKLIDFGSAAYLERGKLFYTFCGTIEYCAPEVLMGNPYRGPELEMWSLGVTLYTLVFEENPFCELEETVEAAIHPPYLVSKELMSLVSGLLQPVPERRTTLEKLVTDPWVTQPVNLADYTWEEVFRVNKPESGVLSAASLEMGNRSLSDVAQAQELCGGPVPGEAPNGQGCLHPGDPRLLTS
A further assay has as its target T2, IKKb/IKBKB (Homo sapiens, UniProt O14920).
T2 sequence (O14920 1-756): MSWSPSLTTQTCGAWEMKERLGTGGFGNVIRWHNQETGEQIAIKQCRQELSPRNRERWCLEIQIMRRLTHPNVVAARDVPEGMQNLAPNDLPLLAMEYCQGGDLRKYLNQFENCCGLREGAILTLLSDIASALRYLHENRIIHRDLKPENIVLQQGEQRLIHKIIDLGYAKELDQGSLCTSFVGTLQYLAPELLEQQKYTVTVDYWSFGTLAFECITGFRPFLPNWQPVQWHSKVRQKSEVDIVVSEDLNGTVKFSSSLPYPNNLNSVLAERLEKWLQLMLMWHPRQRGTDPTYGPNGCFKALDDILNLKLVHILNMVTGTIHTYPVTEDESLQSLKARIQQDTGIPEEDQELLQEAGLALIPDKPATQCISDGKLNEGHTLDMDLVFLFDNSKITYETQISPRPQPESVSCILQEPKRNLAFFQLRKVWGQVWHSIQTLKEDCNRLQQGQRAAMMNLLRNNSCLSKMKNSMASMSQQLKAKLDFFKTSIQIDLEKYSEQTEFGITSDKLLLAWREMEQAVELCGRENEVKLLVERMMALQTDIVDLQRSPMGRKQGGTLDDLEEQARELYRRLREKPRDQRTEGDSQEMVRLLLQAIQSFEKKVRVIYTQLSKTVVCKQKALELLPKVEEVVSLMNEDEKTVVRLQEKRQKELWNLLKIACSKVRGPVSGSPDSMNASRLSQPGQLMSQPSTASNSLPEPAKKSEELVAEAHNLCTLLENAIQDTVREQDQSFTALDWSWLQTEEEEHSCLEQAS
The note with it: 1 μM; Run 1, Run 2.

Another assay addresses ACK1 (Homo sapiens, UniProt Q07912). The note with it: 1 μM; Run 1, Run 2.
The target of the next assay is T3, Aurora A (Homo sapiens, UniProt O14965).
T3 sequence (O14965 1-403): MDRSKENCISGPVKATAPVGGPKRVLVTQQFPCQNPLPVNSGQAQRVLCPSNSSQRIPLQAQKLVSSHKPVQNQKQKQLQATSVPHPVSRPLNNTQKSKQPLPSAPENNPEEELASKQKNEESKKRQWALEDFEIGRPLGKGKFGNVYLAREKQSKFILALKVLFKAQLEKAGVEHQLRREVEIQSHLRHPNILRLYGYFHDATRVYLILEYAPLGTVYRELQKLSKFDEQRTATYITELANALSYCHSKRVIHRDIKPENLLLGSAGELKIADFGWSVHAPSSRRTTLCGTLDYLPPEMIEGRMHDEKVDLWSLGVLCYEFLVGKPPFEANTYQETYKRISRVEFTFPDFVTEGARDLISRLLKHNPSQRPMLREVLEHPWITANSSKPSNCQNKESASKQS
The note with it: 1 μM; Run 1, Run 2.

Molecules are shown by their SMILES. “And” between values parts separate entries of the source, which are not always exact repeats. Identical values can stand only once.

The record followed here is PMC8213057, “Targeting ALK2: An Open Science Approach to Developing Therapeutics for the Treatment of Diffuse Intrinsic Pontine Glioma” (Journal of Medicinal Chemistry, 2020).

Sequence of ACK1 (Q07912 whole entry): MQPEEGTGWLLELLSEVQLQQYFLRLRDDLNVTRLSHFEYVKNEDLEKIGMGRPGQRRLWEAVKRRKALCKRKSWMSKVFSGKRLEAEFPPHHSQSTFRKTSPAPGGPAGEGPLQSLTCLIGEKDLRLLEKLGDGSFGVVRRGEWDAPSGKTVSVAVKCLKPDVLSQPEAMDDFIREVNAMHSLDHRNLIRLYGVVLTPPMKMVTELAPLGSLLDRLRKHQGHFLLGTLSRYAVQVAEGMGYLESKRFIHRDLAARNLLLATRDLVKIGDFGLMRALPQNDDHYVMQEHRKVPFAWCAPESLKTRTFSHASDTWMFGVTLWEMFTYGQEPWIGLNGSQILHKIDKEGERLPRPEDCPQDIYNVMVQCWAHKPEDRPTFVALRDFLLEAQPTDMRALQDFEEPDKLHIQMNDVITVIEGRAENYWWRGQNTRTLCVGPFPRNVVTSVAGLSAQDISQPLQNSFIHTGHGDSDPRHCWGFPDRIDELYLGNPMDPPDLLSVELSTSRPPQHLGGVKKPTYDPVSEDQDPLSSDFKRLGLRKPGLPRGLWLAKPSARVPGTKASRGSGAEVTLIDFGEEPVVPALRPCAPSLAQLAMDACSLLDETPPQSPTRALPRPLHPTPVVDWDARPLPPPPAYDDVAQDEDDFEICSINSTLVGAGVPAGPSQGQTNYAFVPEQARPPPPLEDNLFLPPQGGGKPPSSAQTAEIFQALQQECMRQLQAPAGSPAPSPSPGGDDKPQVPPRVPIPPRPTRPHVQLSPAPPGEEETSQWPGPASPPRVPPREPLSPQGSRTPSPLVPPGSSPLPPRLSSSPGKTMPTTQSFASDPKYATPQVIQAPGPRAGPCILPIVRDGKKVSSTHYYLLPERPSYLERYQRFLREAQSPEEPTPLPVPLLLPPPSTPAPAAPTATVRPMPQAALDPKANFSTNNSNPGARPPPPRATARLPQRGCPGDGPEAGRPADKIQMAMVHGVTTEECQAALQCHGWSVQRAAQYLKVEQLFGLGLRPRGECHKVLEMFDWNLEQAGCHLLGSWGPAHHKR
Sequence of WEE1 (P30291 whole entry, species assumed): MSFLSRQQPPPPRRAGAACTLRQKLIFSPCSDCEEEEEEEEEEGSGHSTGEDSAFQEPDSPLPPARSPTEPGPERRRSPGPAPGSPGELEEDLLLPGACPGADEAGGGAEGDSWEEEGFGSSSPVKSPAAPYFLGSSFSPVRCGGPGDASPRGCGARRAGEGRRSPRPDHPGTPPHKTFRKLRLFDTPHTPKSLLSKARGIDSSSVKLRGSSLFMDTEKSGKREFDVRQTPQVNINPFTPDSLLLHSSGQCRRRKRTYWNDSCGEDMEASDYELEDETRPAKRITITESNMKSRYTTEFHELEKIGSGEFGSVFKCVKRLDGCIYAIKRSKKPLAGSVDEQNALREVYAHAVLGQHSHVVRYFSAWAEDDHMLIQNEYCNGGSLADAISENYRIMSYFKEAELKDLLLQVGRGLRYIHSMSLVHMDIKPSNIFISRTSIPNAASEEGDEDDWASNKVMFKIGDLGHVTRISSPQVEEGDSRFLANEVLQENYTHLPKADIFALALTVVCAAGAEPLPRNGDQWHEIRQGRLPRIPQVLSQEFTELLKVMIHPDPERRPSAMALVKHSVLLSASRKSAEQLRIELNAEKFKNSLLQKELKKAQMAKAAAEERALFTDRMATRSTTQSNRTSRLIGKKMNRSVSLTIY

`COc1cc(-c2cncc(-c3ccc(N4CCN(C)CC4)cc3)c2C)cc(F)c1C(N)=O` [Compound 26a, 2-Fluoro-6-methoxy-4-(4-methyl-5-(4-(4-methylpiperazin-1-yl)phenyl)pyridin-3-yl)benzamide]: the remaining activity at 1 µM came out at 95.1% at GRK7, 94.6% at CDK5/P25, 105% at WEE1 and 88.7% on COT1/MAP3K8. Further, the “% enzyme activity” value at ROCK2 turned out to be 115.13%; on PASK, 93.23%; at IKKb/IKBKB it was 101.39%; on ACK1 it was 65.46%; on Aurora A it was 97.24%. Moreover, the % enzyme activity at 1 μM in the assay on ZAK/MLTK was 31.3% and 30.9%.

Take `COc1cc(-c2cncc(-c3ccc(N4C[C@@H](C)N(C)[C@@H](C)C4)cc3)c2C)cc(F)c1C(N)=O` [Compound 26c, 2-Fluoro-6-methoxy-4-(4-methyl-5-(4-((3R,5S)-3,4,5-trimethylpiperazin-1-yl)phenyl)pyridin-3-yl)benzamide]: the remaining activity at 1 µM at GRK7 was 91.8%; at CDK5/P25, 94.8%; on WEE1, 105%; on COT1/MAP3K8, 92.9%. Further, the “% enzyme activity” value on ROCK2 is recorded as 93.98%; on PASK, 98.21%; on IKKb/IKBKB, 100.59%; on ACK1, 76.07%; at Aurora A, 101.37%. Also, the % enzyme activity at 1 μM with ZAK/MLTK was determined as 46.6%.
